Results published in PubChem BioAssay (NCI).
Several values for one entry are separate records, joined by “and”; a condition that tells them apart may be missing. Equal values may be shown once.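 Step 1: Grow cells in 96-well plates. Step 2: Expose to compound for 48 hours at 5 concentrations. Step 3: Interpolate endpoints linearly; if unreached, use highest concentration. At the GI50, growth is halved. TGI: concentration producing complete growth inhibition.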

Key:
Experiment in all cases: NCI tumour cell line growth inhibition, 48 h
[1] = test system: BT-549 breast
[2] = test system: CAKI-1 renal
[3] = test system: HCC-2998 colon
[4] = test system: M14 melanoma
[5] = test system: NCI-H23 lung
[6] = test system: OVCAR-8 ovarian
[7] = test system: SF-295 CNS
[8] = test system: SNB-19 CNS
[9] = test system: SR leukemia
[10] = test system: UACC-257 melanoma

O=C1CCc2cc([N+](=O)[O-])ccc2O1
TGI [1]: > 100 µM | TGI [2]: > 100 µM | TGI [3]: > 100 µM | TGI [4]: > 100 µM | TGI [5]: > 100 µM | TGI [6]: > 100 µM | TGI [7]: > 100 µM | TGI [8]: > 100 µM | TGI [9]: > 100 µM | TGI [10]: > 100 µM

CC([C@H]1CCC2C3CCC4C(=O)C(NC=O)=CC[C@]4(C)C3CC[C@@]21C)N(C)C (some centres undefined)
GI50 [1]: 3.94 µM | TGI [1]: 21.3 µM | GI50 [2]: 3.79 µM | TGI [2]: 33.5 µM | GI50 [3]: 4.09 µM | TGI [3]: 14.7 µM | GI50 [4]: 2.08 µM | TGI [4]: 4.39 µM | GI50 [5]: 4.42 µM | TGI [5]: 18.7 µM | GI50 [6]: 6.16 µM | TGI [6]: 40.9 µM | GI50 [7]: 2.11 µM | TGI [7]: 5.67 µM | GI50 [8]: 8.39 µM | TGI [8]: 22.1 µM | GI50 [9]: 1.03 µM | TGI [9]: 6.5 µM | GI50 [10]: 4.24 µM | TGI [10]: 10.4 µM

CN1CCN(c2nc(C3=C(c4c[nH]c5ccccc45)C(=O)NC3=O)c3ccccc3n2)CC1
GI50 [1]: 8.91 µM and 14.3 µM | TGI [1]: 20.8 µM and 29.3 µM | GI50 [2]: 9.47 µM and 16.9 µM | TGI [2]: 54.5 µM and 46.1 µM | GI50 [3]: 11.2 µM and 19 µM | TGI [3]: 22.6 µM and 36.7 µM | GI50 [4]: 10.5 µM and 17 µM | TGI [4]: 20.5 µM and 37.6 µM | GI50 [5]: 14.8 µM and 17.6 µM | TGI [5]: 39.9 µM and 41.4 µM | GI50 [6]: 17.2 µM and 18.4 µM | TGI [6]: 65 µM and 57.5 µM | GI50 [7]: 12.2 µM and 19.6 µM | TGI [7]: 25.9 µM and 37.8 µM | GI50 [8]: 27.2 µM and 23.3 µM | TGI [8]: 65 µM and 49.2 µM | GI50 [9]: 11.6 µM | TGI [9]: 36.2 µM | GI50 [10]: 11.2 µM and 15.7 µM | TGI [10]: 23.1 µM and 31.3 µM

Cc1cc(C)c2nc(Nc3nc(C)c(C)c(=O)[nH]3)nc(C)c2c1
GI50 [1]: 2.01 µM | TGI [1]: 8.48 µM | GI50 [3]: 3.81 µM | TGI [3]: 19.6 µM | GI50 [4]: 2.58 µM | TGI [4]: 8.79 µM | GI50 [5]: 3.44 µM | TGI [5]: 20.4 µM | GI50 [6]: 2.83 µM | TGI [6]: 10.7 µM | GI50 [7]: 2.29 µM | TGI [7]: 6.44 µM | GI50 [8]: 3.19 µM | TGI [8]: 14.3 µM | GI50 [9]: 2.18 µM | TGI [9]: 7.43 µM | GI50 [10]: 2.82 µM | TGI [10]: 9.22 µM

CC(=O)c1c[nH]c2ccc(-c3ccnc(Nc4ccc(NC(=O)c5cccc(F)c5)c(CN5CCOCC5)c4)n3)cc12
GI50 [1]: 0.208 µM | TGI [1]: 3.97 µM | GI50 [2]: 0.0526 µM | TGI [2]: 5.02 µM | GI50 [3]: 0.292 µM | TGI [3]: 16.6 µM | GI50 [4]: 0.188 µM | TGI [4]: 0.794 µM | GI50 [5]: 0.195 µM | TGI [5]: 1.09 µM | GI50 [6]: 0.255 µM | TGI [6]: > 100 µM | GI50 [7]: 0.249 µM | TGI [7]: 1.75 µM | GI50 [8]: 0.218 µM | TGI [8]: 9.8 µM | GI50 [9]: 0.0363 µM | TGI [9]: > 100 µM | GI50 [10]: 0.304 µM | TGI [10]: 2.65 µM

O=C(O)CSc1ccn(Cc2ccccc2)c1
TGI [1]: > 100 µM | TGI [2]: > 100 µM | TGI [4]: > 100 µM | TGI [5]: > 100 µM | TGI [6]: > 100 µM | TGI [7]: > 100 µM | TGI [8]: > 100 µM | TGI [9]: > 100 µM | TGI [10]: > 100 µM

CC(CC(C)[C@H]1CCC2[C@H]3C(CC[C@@]21C)[C@@]1(C)CCC(O)C[C@H]1C[C@@H]3O)C(=O)O (some centres undefined)
TGI [1]: > 100 µM | TGI [2]: > 100 µM | TGI [3]: > 100 µM | TGI [4]: > 100 µM | TGI [5]: > 100 µM | TGI [6]: > 100 µM | TGI [8]: > 100 µM | TGI [9]: > 100 µM | TGI [10]: > 100 µM

CCSc1sc(-c2ccc(C)cc2)nc1[P+](c1ccccc1)(c1ccccc1)c1ccccc1
GI50 [1]: 0.295 µM | TGI [1]: 1.32 µM | GI50 [2]: 0.488 µM | TGI [2]: 1.35 µM | GI50 [3]: 0.47 µM | TGI [3]: 1.62 µM | GI50 [4]: 0.342 µM | TGI [4]: 1.51 µM | GI50 [5]: 0.273 µM | TGI [5]: 0.881 µM | GI50 [6]: 0.313 µM | TGI [6]: 1.89 µM | GI50 [7]: 0.235 µM | TGI [7]: 0.736 µM | GI50 [8]: 0.332 µM | TGI [8]: 1.39 µM | GI50 [9]: 0.354 µM | TGI [9]: 3.47 µM | GI50 [10]: 0.294 µM | TGI [10]: 1.05 µM

COc1cc2c(cc1OC)[C@@H]1[C@H](C2=O)c2ccc([N+](=O)[O-])cc2C(=O)N1CCCBr
GI50 [1]: 1.96 µM | TGI [1]: 23.9 µM | GI50 [2]: < 0.01 µM | GI50 [3]: 2.66 µM | TGI [3]: > 100 µM | GI50 [4]: < 0.01 µM | TGI [4]: 0.0139 µM | GI50 [5]: < 0.01 µM | TGI [5]: 1.8 µM | GI50 [6]: 0.0169 µM | TGI [6]: 2.04 µM | GI50 [8]: 0.474 µM | TGI [8]: > 100 µM | GI50 [9]: < 0.01 µM | TGI [9]: 0.311 µM | GI50 [10]: 0.0737 µM | TGI [10]: 0.893 µM

COc1cccc(-n2cnc3c(N/N=C/c4ccncc4)ncnc32)c1
GI50 [1]: > 23.8 µM | TGI [1]: > 25 µM | GI50 [2]: 7.34 µM | TGI [2]: > 25 µM | GI50 [3]: > 25 µM | TGI [3]: > 25 µM | GI50 [4]: 10.3 µM | TGI [4]: > 25 µM | GI50 [5]: > 25 µM | TGI [5]: > 25 µM | GI50 [6]: > 20.6 µM | TGI [6]: > 25 µM | GI50 [7]: > 25 µM | TGI [7]: > 25 µM | GI50 [8]: > 25 µM | TGI [8]: > 25 µM | GI50 [9]: 12.3 µM | TGI [9]: > 25 µM | GI50 [10]: > 19.7 µM | TGI [10]: > 25 µM

COc1cc(Oc2cnc3cc(N)cc(N)c3n2)cc(OC)c1OC
GI50 [1]: 43.5 µM | TGI [1]: > 100 µM | GI50 [2]: 38.2 µM | TGI [2]: > 100 µM | GI50 [3]: 15.6 µM | TGI [3]: 32.2 µM | GI50 [4]: 22.7 µM | TGI [4]: 76.2 µM | GI50 [5]: 31.4 µM | TGI [5]: > 100 µM | GI50 [6]: 58.8 µM | TGI [6]: > 100 µM | GI50 [7]: 74.4 µM | TGI [7]: > 100 µM | GI50 [8]: > 100 µM | TGI [8]: > 100 µM | GI50 [9]: 14 µM | TGI [9]: 37.2 µM | GI50 [10]: > 100 µM | TGI [10]: > 100 µM

COC(=O)C1=C(O)C(C(=O)OC)[C@@]2(O)[C@@H](C(=O)OC)C(c3ccccc3C(F)(F)F)C[C@@H]1[C@@H]2C(=O)OC (some centres undefined)
GI50 [1]: 3.08 µM | TGI [1]: 11.9 µM | GI50 [2]: 2.71 µM | TGI [2]: 6.73 µM | GI50 [3]: 14.2 µM | TGI [3]: 27.2 µM | GI50 [4]: 13.9 µM | TGI [4]: 47.4 µM | GI50 [5]: 3.44 µM | TGI [5]: 11.6 µM | GI50 [6]: 10.1 µM | TGI [6]: 24.5 µM | GI50 [8]: 1.81 µM | TGI [8]: 13.6 µM | GI50 [9]: 2.82 µM | TGI [9]: 62.4 µM | GI50 [10]: 6.39 µM | TGI [10]: 20.3 µM

O=C(O)/C=C/C(=O)Nc1cccc2c1-c1ccccc1C2=O
TGI [1]: > 100 µM | TGI [2]: > 100 µM | TGI [3]: 71.8 µM | TGI [4]: > 100 µM | TGI [5]: > 100 µM | TGI [6]: > 100 µM | TGI [7]: > 33.8 µM | TGI [8]: > 100 µM | TGI [9]: > 57.8 µM | TGI [10]: > 100 µM

N#CC1=C(N)NC(=S)NC1c1ccc(-c2ccc(-c3nc4ccccc4s3)cc2)o1 (centres undefined)
GI50 [1]: 21.7 µM | TGI [1]: > 50 µM | GI50 [2]: 35.3 µM | TGI [2]: > 50 µM | GI50 [4]: 20.8 µM | TGI [4]: > 50 µM | GI50 [5]: 33.2 µM | TGI [5]: > 50 µM | GI50 [6]: 35.1 µM | TGI [6]: > 50 µM | GI50 [7]: 26.9 µM | TGI [7]: > 50 µM | GI50 [8]: > 50 µM | TGI [8]: > 50 µM | GI50 [9]: 11.3 µM | TGI [9]: 25.7 µM | GI50 [10]: 36.9 µM | TGI [10]: > 50 µM
